# Target: T1, USP28 (USP28-5(1-1077)-TEV-6*His; LifeSensors) (Homo sapiens, UniProt Q96RU2)
# T1 construct: construct USP28 (USP28-5(1-1077)-TEV-6*His; LifeSensors); TEV cleavage site (C); 6xHis (C); purchased LifeSensors
# T1 sequence (Q96RU2 1-1077): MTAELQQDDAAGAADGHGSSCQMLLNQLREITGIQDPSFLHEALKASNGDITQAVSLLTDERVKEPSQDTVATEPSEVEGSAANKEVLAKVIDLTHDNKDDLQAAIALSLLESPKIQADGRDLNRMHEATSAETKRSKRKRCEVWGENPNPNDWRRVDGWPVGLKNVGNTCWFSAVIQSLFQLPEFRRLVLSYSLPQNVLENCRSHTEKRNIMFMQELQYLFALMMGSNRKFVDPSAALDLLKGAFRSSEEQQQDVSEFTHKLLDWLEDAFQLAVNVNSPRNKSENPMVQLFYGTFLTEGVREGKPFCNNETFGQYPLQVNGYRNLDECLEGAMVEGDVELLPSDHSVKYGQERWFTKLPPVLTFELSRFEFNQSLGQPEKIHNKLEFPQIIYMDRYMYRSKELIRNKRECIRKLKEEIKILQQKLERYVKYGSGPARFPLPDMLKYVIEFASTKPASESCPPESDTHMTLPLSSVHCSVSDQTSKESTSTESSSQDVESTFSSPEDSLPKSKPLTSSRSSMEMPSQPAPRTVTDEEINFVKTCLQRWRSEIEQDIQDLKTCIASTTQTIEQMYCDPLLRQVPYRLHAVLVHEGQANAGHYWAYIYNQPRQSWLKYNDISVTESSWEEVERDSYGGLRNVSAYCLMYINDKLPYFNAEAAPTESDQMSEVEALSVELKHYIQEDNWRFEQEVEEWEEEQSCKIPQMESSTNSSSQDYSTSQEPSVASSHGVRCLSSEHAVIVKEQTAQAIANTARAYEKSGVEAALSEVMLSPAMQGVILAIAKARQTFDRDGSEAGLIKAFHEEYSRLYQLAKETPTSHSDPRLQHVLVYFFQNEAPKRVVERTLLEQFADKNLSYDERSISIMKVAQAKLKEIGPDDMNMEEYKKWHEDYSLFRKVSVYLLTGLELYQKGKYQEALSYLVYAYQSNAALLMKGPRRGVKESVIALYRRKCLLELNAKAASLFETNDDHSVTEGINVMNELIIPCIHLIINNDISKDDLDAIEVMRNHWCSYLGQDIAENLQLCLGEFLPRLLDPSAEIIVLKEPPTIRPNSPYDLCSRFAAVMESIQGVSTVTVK
# Experiment: Ubiquitin-Rhodamine 110 Assay for USP28 Activity, Example A-1(b)
# Format: biochemical
# Settings: Ub-Rh110 assay, Example A-1(b)
# How it was run: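 Single-point screening used 10 μM compound with 90 min room-temperature incubation; follow-up dose-responses (25 μM top, 3-fold) used 75 pM USP28 1-1077 construct, 30 min compound preincubation, 25 nM Ub-Rh110, 20 min reaction, citric acid quench. Rh110 fluorescence normalised to no-enzyme and DMSO controls; IC50 from 4-parameter logistic fit.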
row,SMILES,USP28 A-1(b) IC50 range
1,"COc1nc2sc(C(=O)N[C@H]3COc4cc(N5CCNCC5)ccc4C3)c(N)c2cc1F [Example 2-16, (R)-3-amino-5-fluoro-6-methoxy-N-(7-(piperazin-1-yl)chroman-3-yl)thieno[2,3-b]pyridine-2-carboxamide]",++ (0.2-2 μM)
2,"Cc1cc(C)c2c(N)c(C(=O)N[C@H]3COc4cc(N5CCNCC5)ccc4C3)sc2n1 [Example 2-17, (R)-3-amino-4,6-dimethyl-N-(7-(piperazin-1-yl)chroman-3-yl)thieno[2,3-b]pyridine-2-carboxamide]",+++ (0.05-0.2 μM)
3,"Cc1cc(C)c2c(N)c(C(=O)N[C@H]3COc4cc(N5CC6CC(C5)N6)ccc4C3)sc2n1 [Example 2-18, N-((3R)-7-(3,6-diazabicyclo[3.1.1]heptan-3-yl)chroman-3-yl)-3-amino-4,6-dimethylthieno[2,3-b]pyridine-2-carboxamide]",+++ (0.05-0.2 μM)
4,"Cc1cc(C)c2c(N)c(C(=O)N[C@H]3COc4cc(N5CC6CNCC(C5)C6(F)F)ccc4C3)sc2n1 [Example 2-19, 3-amino-N-((3R)-7-(9,9-difluoro-3,7-diazabicyclo[3.3.1]nonan-3-yl)chroman-3-yl)-4,6-dimethylthieno[2,3-b]pyridine-2-carboxamide]",++++ (0.001-0.05 μM)
5,"Cc1cc(C)c2c(N)c(C(=O)N[C@H]3COc4cc(N5CC6CNCC(C5)O6)ccc4C3)sc2n1 [Example 2-20, N-((3R)-7-(9-oxa-3,7-diazabicyclo[3.3.1]nonan-3-yl)chroman-3-yl)-3-amino-4,6-dimethylthieno[2,3-b]pyridine-2-carboxamide]",+++ (0.05-0.2 μM)
6,Cc1cc(C(F)(F)F)c2c(N)c(C(=O)N[C@H]3COc4cc(N5CC6CC(C5)N6)ccc4C3)sc2n1 [Example 2-21],++ (0.2-2 μM)
7,"Cc1cc(C(F)(F)F)c2c(N)c(C(=O)N[C@H]3COc4cc(N5CC6CNCC(C5)C6(F)F)ccc4C3)sc2n1 [Example 2-22, 3-amino-N-((3R)-7-(9,9-difluoro-3,7-diazabicyclo[3.3.1]nonan-3-yl)chroman-3-yl)-6-methyl-4-(trifluoromethyl)thieno[2,3-b]pyridine-2-carboxamide]",++++ (0.001-0.05 μM)
8,"O=C(N[C@H]1COc2cc(N3CC4CCC(C3)N4)ccc2C1)c1cnc2c(c1)C1(CCN2)CC1 [Example 2-24, N-((3R)-7-(3,8-diazabicyclo[3.2.1]octan-3-yl)chroman-3-yl)-2′,3′-dihydro-1′H-spiro[cyclopropane-1,4′-[1,8]naphthyridine]-6′-carboxamide]",+ (>2 μM)
9,"O=C(N[C@H]1COc2cc(N3CC4CCC(C3)N4)ccc2C1)c1ccc(NCc2ccccc2)nc1 [Example 2-25, N-((3R)-7-(3,8-diazabicyclo[3.2.1]octan-3-yl)chroman-3-yl)-6-(benzylamino)nicotinamide]",++ (0.2-2 μM)
10,"Cc1nc2sc(C(=O)N[C@H]3COc4cc(N5CC6CC(C5)N6)ccc4C3)c(N)c2s1 [Example 2-26, N-((3R)-7-(3,6-diazabicyclo[3.1.1]heptan-3-yl)chroman-3-yl)-6-amino-2-methylthieno[2,3-d]thiazole-5-carboxamide]",++ (0.2-2 μM)
11,Cc1nc2sc(C(=O)N[C@H]3COc4cc(N5CC6CCCC(C5)N6)ccc4C3)c(N)c2s1 [Example 2-27],++ (0.2-2 μM)
12,"Cc1nc2sc(C(=O)N[C@H]3COc4cc(N5CC6CNCC(C5)C6(F)F)ccc4C3)c(N)c2s1 [Example 2-28, 6-amino-N-((3R)-7-(9,9-difluoro-3,7-diazabicyclo[3.3.1]nonan-3-yl)chroman-3-yl)-2-methylthieno[2,3-d]thiazole-5-carboxamide]",+++ (0.05-0.2 μM)
13,"CCn1ccc2cc(C(=O)N[C@H]3COc4cc(N5CC6CCCC(C5)N6)ccc4C3)nnc21 [Example 2-29, N-((3R)-7-(3,9-diazabicyclo[3.3.1]nonan-3-yl)chroman-3-yl)-7-ethyl-7H-pyrrolo[2,3-c]pyridazine-3-carboxamide]",++ (0.2-2 μM)
14,"CCn1ccc2cc(C(=O)N[C@H]3COc4cc(N5CC6CNCC(C5)C6(F)F)ccc4C3)cnc21 [Example 2-30, N-((3R)-7-(9,9-difluoro-3,7-diazabicyclo[3.3.1]nonan-3-yl)chroman-3-yl)-1-ethyl-1H-pyrrolo[2,3-b]pyridine-5-carboxamide]",++++ (0.001-0.05 μM)
15,"Cc1ccc2c(N)c(C(=O)N[C@H]3COc4cc(N5CC6CNCC(C5)C6(F)F)c(C#N)cc4C3)sc2n1 [Example 2-33, 3-amino-N-((3R)-6-cyano-7-(9,9-difluoro-3,7-diazabicyclo[3.3.1]nonan-3-yl)chroman-3-yl)-6-methylthieno[2,3-b]pyridine-2-carboxamide]",++++ (0.001-0.05 μM)

# — patent US11524966B1 (Valo Early Discovery, Inc., priority 2017, dated 2022)
